Results taken from PubChem BioAssay AID652247 (Sanford-Burnham Center for Chemical Genomics, 2013).
Activity calls are given as the source filed them. No rule for the calls is given here.

Target: NEDD8-conjugating enzyme Ubc12 (Homo sapiens) + NEDD8-activating enzyme E1 regulatory subunit (Homo sapiens) (UniProt P61081+Q13564)
Assay: inhibitors of CUL1 neddylation, potency, dose response, biochemical, TR-FRET (AID 652247)
Settings: in vitro CUL1 neddylation

NEDD8-conjugating enzyme Ubc12 (Homo sapiens) + NEDD8-activating enzyme E1 regulatory subunit (Homo sapiens), sequence (P61081 whole entry, looked up): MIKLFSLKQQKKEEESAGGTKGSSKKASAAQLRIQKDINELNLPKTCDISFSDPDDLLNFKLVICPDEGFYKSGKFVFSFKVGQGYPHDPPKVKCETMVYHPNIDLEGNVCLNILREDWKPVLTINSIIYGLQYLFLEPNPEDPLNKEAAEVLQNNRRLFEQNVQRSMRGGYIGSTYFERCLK
NEDD8-conjugating enzyme Ubc12 (Homo sapiens) + NEDD8-activating enzyme E1 regulatory subunit (Homo sapiens), sequence (Q13564 whole entry, looked up): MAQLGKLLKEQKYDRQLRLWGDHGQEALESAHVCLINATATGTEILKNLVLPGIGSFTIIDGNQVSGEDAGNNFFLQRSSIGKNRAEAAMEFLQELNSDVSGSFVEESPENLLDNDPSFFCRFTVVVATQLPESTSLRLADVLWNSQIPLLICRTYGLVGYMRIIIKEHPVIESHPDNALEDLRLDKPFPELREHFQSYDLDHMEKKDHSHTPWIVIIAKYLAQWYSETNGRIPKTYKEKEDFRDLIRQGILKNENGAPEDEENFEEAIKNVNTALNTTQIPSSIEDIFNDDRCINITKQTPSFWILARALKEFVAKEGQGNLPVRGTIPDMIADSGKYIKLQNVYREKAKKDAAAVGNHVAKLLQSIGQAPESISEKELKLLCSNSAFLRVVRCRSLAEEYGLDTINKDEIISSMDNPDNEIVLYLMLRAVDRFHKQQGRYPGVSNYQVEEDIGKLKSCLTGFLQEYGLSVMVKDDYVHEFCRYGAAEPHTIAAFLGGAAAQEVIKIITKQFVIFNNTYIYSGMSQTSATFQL

`CC(=O)c1ccc(-c2ccc(C(=O)NCC(c3ccc(F)cc3)N3CCOCC3)o2)cc1` (centres undefined) was tested. Which IC50 did it give?
The IC50 was “inactive”.

How did the IC50 turn out when `CCOC(=O)N1CCN(S(=O)(=O)c2ccc3c4c(cccc24)C(=O)N3)CC1` was run?
The IC50 was “inactive”.

With `CC(=CCOc1ccc2ccc(=O)oc2c1)C1=CC(=O)C(C)(C)O1` as the compound, how does the IC50 read?
Its IC50 is “inactive”.

How did the IC50 turn out when `CC(=O)OCCc1c2ccccc2c(CCCN(C)C)c2ccccc12` was run?
The IC50 was 11.9 µM.

`NC(=O)C1CCN(C(=O)c2ccc3nc(-c4ccccc4)c(-c4ccccc4)nc3c2)CC1` was tested. Which IC50 did it give?
The IC50 was “inactive”.

With `CCCc1c(O)c2ccccc2[nH]c1=O` as the compound, how does the IC50 read?
Its IC50 is “inactive”.

With `O=C(CCc1ccccc1)Nc1nnc(-c2ccccn2)o1` as the compound, how does the IC50 read?
The IC50 was “inactive”.

Which IC50 does the source give for `Nc1ncnc2c1ncn2C1OC(COP(=O)(O)O)C(O)C1O` (centres undefined) here?
Its IC50 is 17.4 µM.

How did the IC50 turn out when `COc1cc(-c2cc(C(=O)N3CCCCCC3)c3ccccc3n2)cc(OC)c1OC` was run?
The IC50 was “inactive”.

With `CCN(CC)c1ccc(/C=N/NC(=O)C2CC2)cc1` as the compound, how does the IC50 read?
The IC50 was “inactive”.

`O=C(NC1CCCCC1)c1cnn2c(C(F)(F)F)cc(-c3ccco3)nc12` was tested. Which IC50 did it give?
Its IC50 is “inactive”.

With `O=C(CCCc1c[nH]c2ccccc12)N1CCN(c2ccc(N3CCOCC3)nn2)CC1` as the compound, how does the IC50 read?
The IC50 was “inactive”.

How did the IC50 turn out when `Cc1ccc2c(c1)COc1c3ccc(C(=O)NCCO)cc3nn1-2` was run?
Its IC50 is “inactive”.

How did the IC50 turn out when `Cc1cccn2c(=O)c3cc(C(=O)N4CCCCC4C)sc3nc12` (centres undefined) was run?
Its IC50 is “inactive”.

Which IC50 does the source give for `Nc1ncnc2c1ncn2[C@@H]1O[C@H](COP(=O)(O)O)[C@@H](O)[C@H]1O` here?
Its IC50 is “inactive”.

Which IC50 does the source give for `O=c1oc2ccccc2cc1-c1cn2cccnc2n1` here?
The IC50 was “inactive”.

How did the IC50 turn out when `CCN(CC)c1ccc(/C=N/NC(=O)CNC(=O)c2cccs2)cc1` was run?
Its IC50 is 14.9 µM.

How did the IC50 turn out when `CCC(=O)N/C(N)=N/c1nc(C)c2cc(OC)ccc2n1` was run?
The IC50 was “inactive”.

How did the IC50 turn out when `COC(=O)c1nc2cc3c(cc2c(C)c1C(=O)OC)OCO3` was run?
The IC50 was “inactive”.

Which IC50 does the source give for `COC(=O)c1ccc(/C=C2\CCn3c2nc2cc(C(=O)O)ccc2c3=O)cc1` here?
The IC50 was “inactive”.

For `COc1ccc(-c2cc(=O)c3cc(O)ccc3o2)cc1`, which IC50 is on record?
The IC50 was “inactive”.

With `N=c1c(C(=O)NCCN2CCOCC2)cc2c(=O)n3ccccc3nc2n1Cc1ccc(F)cc1` as the compound, how does the IC50 read?
The IC50 was 16.5 µM.

`COC(=O)C1C(O)=C(C=Nc2cccc3ccccc23)C(=O)CC1(C)C` (centres undefined) was tested. Which IC50 did it give?
The IC50 was “inactive”.

Which IC50 does the source give for `COc1cccc(Cn2cc(/C=N/NC(=O)c3cc(O)cc(O)c3)c3ccccc32)c1` here?
Its IC50 is “inactive”.

With `COC(=O)c1ccc(C(=O)OC)c(=O)[nH]1` as the compound, how does the IC50 read?
Its IC50 is “inactive”.

Which IC50 does the source give for `CCn1c(=O)c(-c2ccccc2)c(O)c2ccccc21` here?
Its IC50 is 17 µM.

With `COc1cc(F)ccc1-c1cc(C(=O)Nc2ccc(NC(C)=O)cc2)[nH]n1` as the compound, how does the IC50 read?
The IC50 was 19.4 µM.

For `COc1ccc(OCC(=O)N/N=C/c2ccc(N(C)C)cc2)cc1`, which IC50 is on record?
The IC50 was “inactive”.

Which IC50 does the source give for `Cc1cccc(C)c1NC(=O)C(C1CC1)n1c(=O)c(-c2ccccc2)nc2ccccc21` (centres undefined) here?
Its IC50 is “inactive”.

With `Cc1ccc(-c2cc(-c3ccc(C)cc3)[n+](-c3ccc(C(=O)[O-])cc3)c(-c3ccc(C)cc3)c2)cc1` as the compound, how does the IC50 read?
The IC50 was “inactive”.

For `O=C(N/N=C/c1cccnc1)c1ccc(CN2c3cccc4cccc(c34)S2(=O)=O)cc1`, which IC50 is on record?
The IC50 was “inactive”.

With `COc1ccccc1N(C(=O)c1snc(C(N)=O)c1N)C(C(=O)NC1CCCC1)c1ccco1` (centres undefined) as the compound, how does the IC50 read?
The IC50 was “inactive”.

`CCOc1ccc(C(=O)N/N=C/c2ccc(-c3ccc(S(=O)(=O)Nc4ncccn4)cc3)o2)cc1` was tested. Which IC50 did it give?
The IC50 was “inactive”.

`O=C(O)c1ccc2c(=O)n3c(nc2c1)/C(=C/c1ccc(OC(F)F)cc1OC(F)F)CC3` was tested. Which IC50 did it give?
Its IC50 is “inactive”.

For `COc1ccc(OC)c(C=NNC(=O)c2ccc(NS(=O)(=O)c3cccs3)cc2)c1`, which IC50 is on record?
The IC50 was “inactive”.

For `CCOC(=O)C1=C(COCCN)NC(C)=C(C(=O)OC)C1c1ccccc1Cl` (centres undefined), which IC50 is on record?
The IC50 was “inactive”.

How did the IC50 turn out when `CCOC(=O)Cn1nc(/C=C/c2ccccc2)ccc1=O` was run?
Its IC50 is “inactive”.

`COC(=O)c1ccc(-c2ccc(/C=N/NC(=O)CC3(C)OCCCO3)o2)cc1` was tested. Which IC50 did it give?
Its IC50 is “inactive”.

How did the IC50 turn out when `O=C(N/N=C/c1ccc2cccnc2c1)c1nc2ccccc2c(=O)[nH]1` was run?
Its IC50 is > 100 µM (inactive).

For `CCOc1ccc(NC(=O)COC(=O)c2ccc3ncsc3c2)cc1OCC`, which IC50 is on record?
The IC50 was “inactive”.

For `O=c1[nH]c2ccccc2nc1-c1ccccc1`, which IC50 is on record?
Its IC50 is “inactive”.

With `OC1CCCN(Cc2c3ccccc3cc3ccccc23)C1` (centres undefined) as the compound, how does the IC50 read?
The IC50 was “inactive”.

With `COC(=O)CSc1ccc2c(N)c(C(=O)OC)sc2c1` as the compound, how does the IC50 read?
Its IC50 is “inactive”.

How did the IC50 turn out when `Cc1ccc2c(c1)COc1c3ccc(C(=O)NCC4CC4)cc3nn1-2` was run?
Its IC50 is “inactive”.

`Cc1cc(-c2ccccc2)c2nncn2n1` was tested. Which IC50 did it give?
The IC50 was “inactive”.

With `O=c1[nH]cnc2nc(-c3ccccc3)c(-c3ccccc3)nc12` as the compound, how does the IC50 read?
Its IC50 is “inactive”.

How did the IC50 turn out when `CCOC(=O)C1CCCN(c2nc3ccccc3nc2NS(=O)(=O)c2ccc(C)cc2)C1` (centres undefined) was run?
Its IC50 is “inactive”.

For `COc1ccc(C[C@H]2c3cc(O)c(OC)cc3CC[N+]2(C)[O-])cc1O` (some centres undefined), which IC50 is on record?
The IC50 was “inactive”.

How did the IC50 turn out when `O=C1NC(=O)c2cc3ccccc3cc21` was run?
The IC50 was > 100 µM (inactive).

With `O=C(O)c1ccc(/C=N/NC(=O)c2ccc(CN3c4cccc5cccc(c45)S3(=O)=O)cc2)cc1` as the compound, how does the IC50 read?
Its IC50 is “inactive”.

For `COc1cccc(N(C(=O)c2snc(C(N)=O)c2N)C(C(=O)NCc2ccccc2)c2ccc(O)cc2)c1` (centres undefined), which IC50 is on record?
Its IC50 is “inactive”.

With `Cc1ccccc1NC(=O)NNC(=O)c1ccc2ccccc2c1O` as the compound, how does the IC50 read?
Its IC50 is “inactive”.

How did the IC50 turn out when `CC(=O)Nc1ccc(NC(=O)c2cc(-c3ccc(C)cc3O)n[nH]2)cc1` was run?
The IC50 was 9.68 µM.

With `CN(C)CCNc1nc(-c2ccco2)c2c(c1C#N)CC(C)(C)OC2` as the compound, how does the IC50 read?
Its IC50 is “inactive”.

For `O=C(Nc1cc(C(=O)Nc2ccccc2C(=O)O)cc(C(=O)Nc2ccccc2C(=O)O)c1)c1ccccc1`, which IC50 is on record?
Its IC50 is > 100 µM (inactive).

Which IC50 does the source give for `CCc1c(C)c2ccc(OC(C)C(=O)NC(Cc3c[nH]c4ccc(O)cc34)C(=O)O)c(C)c2oc1=O` (centres undefined) here?
Its IC50 is “inactive”.

`c1ccc(C[n+]2cccc3c4ccccc4ccc32)cc1` was tested. Which IC50 did it give?
The IC50 was 9.52 µM.

With `O=C(N/N=C/c1c(O)n(-c2ccccc2Cl)c(=O)c2ccccc12)C1COc2ccccc2O1` (centres undefined) as the compound, how does the IC50 read?
The IC50 was “inactive”.

`Cc1ccc2cc3cc(C(=O)NCCN4CCOCC4)oc3nc2c1` was tested. Which IC50 did it give?
The IC50 was 16.9 µM.

How did the IC50 turn out when `CCNC(=O)/C(C#N)=C/c1c(N2CCN(c3ccccc3)CC2)nc2ccccn2c1=O` was run?
Its IC50 is “inactive”.

With `c1cc2c3c(cccc3c1)-c1cnccc1-2` as the compound, how does the IC50 read?
The IC50 was “inactive”.

Which IC50 does the source give for `Cc1ccc(C(=O)N/C(=C\c2cccs2)c2nc3ccccc3[nH]2)cc1` here?
The IC50 was “inactive”.

For `Cc1cccc(OCC(=O)N/N=C/c2ccc(N(C)C)cc2)c1`, which IC50 is on record?
Its IC50 is “inactive”.

For `Cc1cccn2c(=O)c(C=NCc3ccccc3)c(NCCO)nc12`, which IC50 is on record?
The IC50 was “inactive”.

`COc1ccc(CC(=O)N/N=C\c2cc(Br)c(O)c(Br)c2)cc1` was tested. Which IC50 did it give?
Its IC50 is “inactive”.

Which IC50 does the source give for `O=C(CN1c2cccc3cccc(c23)S1(=O)=O)NCc1ccc(F)cc1` here?
The IC50 was “inactive”.

For `O=C(O)c1cc(N2CCCCC2)nc2ccccc12`, which IC50 is on record?
Its IC50 is “inactive”.

Which IC50 does the source give for `Cc1cccn2c(=O)c3cc(C(=O)NC4CCCC4)sc3nc12` here?
Its IC50 is 9.39 µM.

With `COc1ccc2[nH]c(C(=O)N/N=C/c3cc(OC)c(OC)c(OC)c3)cc2c1` as the compound, how does the IC50 read?
The IC50 was “inactive”.

`Cc1cccc(C)c1NC(=O)C(c1ccncc1)n1c(=O)c(-c2ccccc2)nc2ccccc21` (centres undefined) was tested. Which IC50 did it give?
The IC50 was “inactive”.

How did the IC50 turn out when `CC(=O)Nc1cc(-c2ccc(N3CCN(C)CC3)cc2)cn2c(-c3ccc(F)cc3)cnc12` was run?
Its IC50 is “inactive”.

For `Cc1cc(NS(=O)(=O)c2ccc(NS(=O)(=O)c3ccc(Br)cc3)cc2)no1`, which IC50 is on record?
Its IC50 is “inactive”.

How did the IC50 turn out when `COc1cc2c(cc1OC)-c1cc(NCc3ccccn3)nc(=O)n1CC2` was run?
Its IC50 is “inactive”.

Which IC50 does the source give for `CCCCCCc1c(C)c2ccc(OCC(=O)N3CCC[C@H]3C(=O)O)c(C)c2oc1=O` here?
The IC50 was “inactive”.
